Measurements published in patent publication EP0003269A1, “Pentacyclic derivatives, process for their preparation and pharmaceutical compositions containing them” (SCIENCE UNION ET Cie SOCIETE FRANCAISE DE RECHERCHE MEDICALE, priority 1977, dated 1979).

Test: solubility in solvents
Format: physicochemical

| solubilité (in a mixture pyridine-eau) | solubilité (in méthanol) | solubilité (in n- butanol) | solubilité (in the other solvents) | solubilité (dichlorhydrate, in organic solvents) | Molecule |
| --- | --- | --- | --- | --- | --- |
| soluble | très soluble | très soluble | peu soluble |  | C[C@@H]1OC=C(C(=O)NN)[C@H]2C[C@H]3c4[nH]c5ccccc5c4CCN3C[C@H]12 [hydrazide de l'acide Raubasinique, Hydrazide de l'acide Raubasinique] |
|  |  |  |  | très soluble | hydrazide de l'acide 10-methoxy raubasinique |
